According to patent US6884819B1, “Neuropathy remedies” (Teijin Limited, priority 1999, dated 2005):

Experiments:
[1] = test system: Wistar rats; assay: Measurement of blood pressure lowering action (blood pressure and heart rate after intravenous injection without anesthesia); assay type: in vivo; set-up: Blood pressure (mmHg, ± standard error): unit not given here; details: for Blood pressure (mmHg, ± standard error): 0 min. value assigned 100
Protocol: Thirty five, male Wistar rats.
Cannulas were inserted into the left carotid artery for measuring blood pressure, and into the left jugular vein for intravenous injection of the test compounds, respectively. After being housed normally in their cages overnight following surgery, the animals were injected with the test solutions without anesthesia. Blood pressure and heart rate were measured immediately before dosing (0 minutes) and at 5, 30, 60, 120 and 240 minutes after dosing. The blood pressure at 0 minutes for each animals was assigned a value of 100, and measured values of blood pressure at each time were then normalized based on that value.

[2] = test system: Alzheimer's dementia animal model by continuous intraventricular infusion of β protein; assay: Step-through passive evasion test in rats with continuous intraventricular infusion of β-amyloid protein (learning and memory ability improvement effect); assay type: in vivo, Wistar rats
Excerpt: A step-through passive evasive reaction apparatus composed of two chambers separated by a guillotine door, was used for the experimental apparatus. Namely, one of the chambers was a bright chamber composed of clear acrylic boards (floor: 15 cm×25 cm, height: 15 cm) while the other chamber was a dark chamber (of the same size) composed of black acrylic boards. In addition, stainless steel grids having a diameter of 4 mm were provided at intervals of 15 mm on the floor of the dark room, and connected to a shock generator for applying an electric shock. To begin with, after opening the guillotine door and allowing to freely explore the inside of the apparatus for 1 minute, the door was closed, the rat was placed in the bright chamber as an acquisition trial and the door was opened 30 seconds later. The door was closed after all four limbs of the rat entered the dark chamber followed immediately by the application of an electric shock. […] As a retention trial conducted 24 hours after the acquisition trial, the rat was placed in the bright chamber and the amount of time until all four limbs entered the dark chamber after the guillotine door was opened 30 seconds later was measured (step-through latency). […] The learning and memory ability improvement action of test compound A was measured using the evaluation methods of Reference Examples 1 and 2. […]

[3] = test system: C57BL mice; assay: Toxicity study, single administration into the caudal vein; assay type: in vivo; details: for Mortality: 0.03, 0.3, 3 mg/kg i.v., mice, 14 days observation; for Body weights: 0.03-3 mg/kg i.v., days 1, 3, 7 and 14 after dosing; for General condition starting on the day after dosing: all dose groups, day after dosing through day 14
Protocol: The test compound solutions were administered into the caudal vein at the rate of about 5 ml per minute. […] In addition, body weights were measured immediately before dosing and on days 1, 3, 7 and 14 after dosing.

[4] = 0.03 mg/kg i.v., 5 min. after dosing
[5] = 0.03 mg/kg i.v., 30 min. after dosing
[6] = 0.03 mg/kg i.v., 60 min. after dosing
[7] = 0.03 mg/kg i.v., 2 hr. after dosing
[8] = 0.03 mg/kg i.v., 4 hr. after dosing
[9] = 0.3 mg/kg i.v., 5 min. after dosing
[10] = 0.3 mg/kg i.v., 30 min. after dosing
[11] = 0.3 mg/kg i.v., 60 min. after dosing
[12] = 0.3 mg/kg i.v., 2 hr. after dosing
[13] = 0.3 mg/kg i.v., 4 hr. after dosing
[14] = 3 mg/kg i.v., 5 min. after dosing
[15] = 3 mg/kg i.v., 30 min. after dosing
[16] = 3 mg/kg i.v., 60 min. after dosing
[17] = 3 mg/kg i.v., 2 hr. after dosing
[18] = 3 mg/kg i.v., 4 hr. after dosing

For `COC(=O)CCCCC1=C[C@H]2C[C@@H](O)[C@H](/C=C/[C@@H](O)Cc3cccc(C)c3)[C@H]2C1` [Comparative Test Compound D, (15S)-16-(m-tolyl)-17,18,19,20-tetranorisocarbacycline methyl ester, reference compound], the “Blood pressure (mmHg, ± standard error)” value [1, 4] was 88.9, the “Blood pressure (mmHg, ± standard error)” value [1, 5] was 92.1 and the “Blood pressure (mmHg, ± standard error)” value [1, 6] was 96.5. The “Blood pressure (mmHg, ± standard error)” value [1, 7] was 97.3, the “Blood pressure (mmHg, ± standard error)” value [1, 8] was 99.0 and the “Blood pressure (mmHg, ± standard error)” value [1, 9] was 49.6. For the same compound, the “Blood pressure (mmHg, ± standard error)” value [1, 10] was 78.5, the “Blood pressure (mmHg, ± standard error)” value [1, 11] was 94.4 and the “Blood pressure (mmHg, ± standard error)” value [1, 12] was 93.3. For the same compound, the “Blood pressure (mmHg, ± standard error)” value [1, 13] was 99.3, the “Duration of decreased blood pressure” value ([1]; 3 mg/kg and 0.3 mg/kg dose groups, i.v.) was at least 30 min and the “Blood pressure (mmHg, ± standard error)” value [1, 14] was 55.0. For the same compound, the “Blood pressure (mmHg, ± standard error)” value [1, 15] was 60.0, the “Blood pressure (mmHg, ± standard error)” value [1, 16] was 81.1 and the “Blood pressure (mmHg, ± standard error)” value [1, 17] was 103.8. The “Blood pressure (mmHg, ± standard error)” value [1, 18] was 115.4.
In the case of `Cc1cccc(C[C@@H](O)/C=C/[C@H]2[C@H](O)CC3C=C(CCCCC(=O)O)C[C@@H]32)c1` (stereo partly drawn) [Test compound A, (15R)-16-(m-tolyl)-17,18,19,20-tetranorisocarbacycline], the “Time until moved to dark chamber during retention trial Mean ± standard error” value ([2]; β-amyloid protein (1-42) 300 pmol/day + test compound 1.2 fmol/day, intraventricular osmotic pump, max observation 300 sec) is reported as 265.7 ± 32.6 (n = 6) sec and the “Learning and memory ability improvement action” value ([2]; β-amyloid protein (1-42) infused rats, overall conclusion) is reported as “improved learning and memory ability”.
In the case of `COC(=O)CCCCC1=C[C@H]2C[C@@H](O)[C@H](/C=C/[C@H](O)Cc3cccc(C)c3)[C@H]2C1` [Test compound B, (15R)-16-(m-tolyl)-17,18,19,20-tetranorisocarbacycline methyl ester], the “Time until decreased movement disappeared after dosing” value ([3]; 3 mg/kg dose group, i.v.) is reported as at most 30 min, the “General condition on the day of dosing” value ([3]; 3 mg/kg dose group, i.v., starting immediately after dosing) is reported as “decreased movement” and the Mortality [3] is reported as “none of the animals died”. For the same compound, the Body weights [3] was “no significant fluctuations”, the “General condition starting on the day after dosing” value [3] was “no abnormalities observed in any of the groups” and the “Blood pressure (mmHg, ± standard error)” value [1, 4] was 105.8. For the same compound, the “Blood pressure (mmHg, ± standard error)” value [1, 5] was 103.4, the “Blood pressure (mmHg, ± standard error)” value [1, 6] was 103.6 and the “Blood pressure (mmHg, ± standard error)” value [1, 7] was 104.5. The “Blood pressure (mmHg, ± standard error)” value [1, 8] was 100.5, the “Blood pressure (mmHg, ± standard error)” value [1, 9] was 92.9 and the “Blood pressure (mmHg, ± standard error)” value [1, 10] was 97.7. The “Blood pressure (mmHg, ± standard error)” value [1, 11] was 97.7, the “Blood pressure (mmHg, ± standard error)” value [1, 12] was 98.5 and the “Blood pressure (mmHg, ± standard error)” value [1, 13] was 98.0. The “Blood pressure change immediately after dosing” value ([1]; 3 mg/kg dose group, i.v.) was “decrease in blood pressure”, the “Heart rate change immediately after dosing” value ([1]; 3 mg/kg dose group, i.v.) was “increase in heart rate” and the “Time after dosing at which blood pressure and heart rate returned to normal” value ([1]; 3 mg/kg dose group, i.v.) was 30 min. For the same compound, the “Blood pressure (mmHg, ± standard error)” value [1, 14] was “mild decrease”, the “Blood pressure (mmHg, ± standard error)” value ([1]; 3 mg/kg i.v., 5 min. after dosing, listed as Test comp. B) was 80.4 and the “Blood pressure (mmHg, ± standard error)” value [1, 15] was 99.4. The “Blood pressure (mmHg, ± standard error)” value [1, 16] was 101.9, the “Blood pressure (mmHg, ± standard error)” value [1, 17] was 102.7 and the “Blood pressure (mmHg, ± standard error)” value [1, 18] was 101.0. The “Fluctuations in blood pressure and heart rate” value ([1]; 0.3 and 0.03 mg/kg dose groups, i.v.) was “no significant fluctuations” and the “Effect on the circulatory system (overall conclusion)” value ([1]; rats, i.v. 0.03-3 mg/kg) was “extremely mild effect”.
In the case of `COC(=O)CCCCC1=C[C@H]2C[C@@H](O)[C@H](/C=C/CCc3cccc(C)c3)[C@H]2C1` [Test compound C, 15-deoxy-16-(m-tolyl)-17,18,19,20-tetranorisocarbacycline methyl ester], the Mortality [3] is reported as “none of the animals died”, the Body weights [3] is reported as “no significant fluctuations” and the “General condition on the day of dosing” value ([3]; all dose groups (0.03, 0.3, 3 mg/kg i.v.)) is reported as “no abnormalities observed in any of the groups”. For the same compound, the “General condition starting on the day after dosing” value [3] was “no abnormalities observed in any of the groups”.
